Holding throughout (format): in vivo, Kunming mice
Test [1] deals with LPS-induced ALI mice. In words: HE staining histopathology and alveolitis score of lung tissue. The note with it: for pathological scores of alveolitis: compared with DEX group (P<0.05). On the procedure:
The dosage is converted according to the weight of the mice, and the gavage volume is 20 milliliters per kilogram (mL/kg), and the gavage is continued for 3 days. One hour after the gavage on the third day, the ALI model is established by tracheal instillation of LPS solution. […] After the mice are awake, they are raised as usual. 2.3 Treatment of Experimental Animals and Collection of Lung Tissue Specimens
Samples are collected 24 hours after the animal model is established. The mice are weighed and 12 mice in each group are sacrificed. Lung tissues are collected and the whole lung wet weight is measured. The lung tissues are packaged for hematoxylin and eosin (HE) staining, MDA and SOD content determination, gene and protein detection. The specific experimental procedures are as follows. • (1) 12 mice in each group are weighed and their necks are dislocated and sacrificed. • (2) The mice are fixed. The abdomen is wiped with 75% alcohol. The thoracic cavity is then opened, and the lung tissue is removed. After tidying, the lungs are photographed, excess tissues such as the trachea are cleared away, and the wet weight of the whole lung is measured to calculate the lung index. • (3) The upper lobe of the left lung is fixed in 4% neutral paraformaldehyde, fixed for 24 hours, paraffin-embedded and sectioned for HE staining. • (4) The remaining lung tissues are put into centrifugal tubes separately, quickly frozen in liquid nitrogen, and then stored at −80° C. after the experiment, which is used for the detection of MDA, SOD, western blotting (WB) and reverse transcription polymerase chain reaction (RT-PCR). 2.4 BALF Collection and Processing

For test [2], the system named is IL-1β. In words: IL-1β content in BALF by ELISA. How it is done:
(§1) A total of 144 SPF-grade healthy Kunming mice, aged 5-7 weeks and weighing 18-22 g, are weighed and randomly allocated into six experimental groups: control group (NS), model group (LPS), dexamethasone group (DEX, […] per kilogram abbreviated as mg/kg), genipin beta-methyl derivative low-dose group (12.5 mg/kg), genipin beta-methyl derivative medium-dose group (25 mg/kg), and genipin beta-methyl derivative high-dose group (50 mg/kg), 24 animals per group, in which 12 animals are used to take lung tissue for the detection of other indicators, and another 12 animals are used to collect BALF.
(§2) All mice are gavaged with a same volume of 0.9% normal saline once a day in the NS group and the LPS group, DEX solution (0.39 mg/kg) is gavaged once a day in the DEX group, low-dose Gen-17 solution (12.5 mg/kg) is gavaged once a day in the medium-dose Gen-17 group, medium-dose Gen-17 solution (25 mg/kg) is gavaged once a day in the high-dose Gen-17 group, and high-dose Gen-17 solution (50 mg/kg) is gavaged once a day in the high-dose Gen-17 group. The dosage is converted according to the weight of the mice, and the gavage volume is 20 milliliters per kilogram (mL/kg), and the gavage is continued for 3 days. One hour after the gavage on the third day, the ALI model is established by tracheal instillation of LPS solution. […]

Test [3] relates to IL-6. Briefly: IL-6 content in BALF by ELISA. How it is done: as §1, §2
For orientation: An ELISA detects its analyte on a solid surface through an enzyme-linked reagent.

The test system of test [4] is JNK phosphorylated protein. Briefly: JNK phosphorylated protein in lung tissue by WB. On the procedure:
as §1, with “BALF. […]” for “BALF.”
(§3) Samples are collected 24 hours after the animal model is established. […] Lung tissues are collected and the whole lung wet weight is measured. […] After tidying, the lungs are photographed, excess tissues such as the trachea are cleared away, and the wet weight of the whole lung is measured to calculate the lung index. • (3) The upper lobe of the left lung is fixed in 4% neutral paraformaldehyde, fixed for 24 hours, paraffin-embedded and sectioned for HE staining. • (4) The remaining lung tissues are put into centrifugal tubes separately, quickly frozen in liquid nitrogen, and then stored at −80° C. after the experiment, which is used for the detection of MDA, SOD, western blotting (WB) and reverse transcription polymerase chain reaction (RT-PCR). […]

The test system of test [5] is HO-1. Briefly: HO-1 protein in lung tissue by WB. The note with it: Gen-17 12.5, 25, 50 mg/kg gavage, ALI mice. How it is done:
as §1, with “BALF. […]” for “BALF.”
as §3

The mark [6] stands for this setting: Gen-17 groups (12.5, 25, 50 mg/kg gavage) compared with LPS group.
Setting [7] is: low-dose Gen-17 12.5 mg/kg gavage, compared with DEX group (P<0.01).

As for `COC(=O)C1=CO[C@@H](OC)[C@@H]2C(COC(=O)c3cccc(Br)c3)=CC[C@H]12` [Gen-17, genipin beta-methyl derivative], the “pathological damage of lung tissue (HE staining)” value in test [1] (setting [6]) is “significantly alleviate the pathological damage”. Moreover, in test [1] (high-dose Gen-17 50 mg/kg gavage, compared with LPS group (P<0.01)), the “pathological score of lung tissue” value is listed as “significantly reduced”. In addition, the “pathological scores of alveolitis” value in test [1] (low-dose Gen-17 12.5 mg/kg gavage) and in test [1] (medium-dose Gen-17 25 mg/kg gavage) was “increased” each time. The “content of IL-1β in BALF” value in test [2] (Gen-17 groups (12.5, 25, 50 mg/kg gavage) compared with LPS group (P<0.05)) is listed as “reduce the contents of inflammatory cytokines”. For the same compound, in test [2] (setting [7]), the “IL-1β level in BALF” value is reported as “statistically significant reduction”. For the same compound, the “content of IL-6 in BALF” value in test [3] (setting [6]) is listed as “reduce the contents of inflammatory cytokines”. The “IL-6 level in BALF” value in test [3] (setting [7]) was “statistically significant reduction”. The “expression of JNK phosphorylated protein in lung tissue” value in test [4] (after drug treatment, compared with LPS group) is “down-regulate the expression of p38, ERK and JNK proteins”; in test [4] (low-dose Gen-17 12.5 mg/kg gavage, compared with DEX group), “statistically significant (P<0.05)”. In test [5], the “expression of HO-1 protein in lung tissue, overall result” value is “upregulate the expression of Nrf2 and HO-1 protein”.

The record behind these values is patent US12458621B1, “Application of genipin beta-methyl derivative gen-17 in preparation of drug for prevention and treatment of acute severe pneumonia” (KUNMING MEDICAL UNIVERSITY, priority 2024, dated 2025).
